This is an account of results in paper PMC12163684, “Gunacins: Novel Benzo[g]chromene Derivatives from the Fungus Exobasidium sp. and Their Potent Anti-Leishmania and Trypanosoma Activities” (ACS Omega, 2025).

Test [1] has as its system Madin–Darby canine kidney (MDCK) epithelial cell line. As to the kind of experiment: Cytotoxicity on proliferating cells, crystal violet assay, OD590. The class given is cell-based. To be noted: Canis lupus familiaris, 24 h treatment, read-out: EC50 ± SEM MDCK. How it is done: (§1) MDCK and RAT cells were cultured in DMEM with 10% FBS at 37 °C in a 5% CO2 atmosphere as described previously. , To assess the toxic effects of the compounds on proliferating cells, cells were seeded in 24-well plates for 24 h to reach ∼15% confluence, and cells were treated in triplicate with increasing concentrations of the isolated compounds for an additional 24 h. Cells were washed with 1× PBS, fixed in staining solution (0.5% crystal violet, 20% methanol) for 10 min, and gently washed five times in 1× PBS. The fixed cells were then dissolved in lysis solution (0.1 M sodium citrate, 25% ethanol, pH 4.2) for 30 min, transferred to a 96-well plate in H2O, and the OD^590 was determined. EC50 values were determined using GraphPad Prism software and the dose–response fit equation. The EC50 values were determined from two independent experiments. Additionally, the impact of the isolated substances on the morphology of the HeLa adenocarcinoma cell line and primary human skin fibroblasts was examined by using fluorescence microscopy. Cells were cultured in DME medium supplemented with 10% FCS (Gibco, Invitrogen, Carlsbad, USA) on glass coverslips in 24-well plates until reaching approximately 50% confluence. The cells were treated with varying concentrations of isolated compounds dissolved in DMSO. Wells containing DMEM with DMSO served as the negative control. After 24 h cultivation, the cells were incubated with MitoTracker Red CMXRos (10 min) to label mitochondria, then fixed with 3.7% paraformaldehyde in PBS (20 min, room temperature), permeabilized with 0.1% Triton X-100 in PBS, and blocked with 1% BSA in PBS. The cells were then stained with Phalloidin-Alexa Fluor488 conjugate. All fluorescence reagents were purchased from Molecular Probes, Invitrogen, Carlsbad, CA, USA. Nuclei were stained with Fluoroshield DAPI (Sigma-Aldrich), and cells were examined using an IX71 microscope equipped with a DP70 camera and a 40× objective. Assays were performed at concentrations of 5, 25, 50, 100, and 125 μM.

In test [2] the test system is RAT2 fibroblast cell line. The test is described as above. The format is cell-based. The note with it: Rat2, 24 h, 24 h treatment, read-out: EC50 ± SEM RAT2. The method, then: as §1
The subject of the next test is C. albicans CCM 8215. As to the kind of experiment: Minimum inhibitory concentration (MIC) testing, serial binary dilution in 96-well plates. The class given is cell-based. To be noted: Candida albicans, CCM8215; 24 h in the dark; n.d. = activity not detected; highest tested concentration 66.7 μM. The method, then: (§2) Minimum inhibitory concentration (MIC) testing of the extracts was performed using 96-well polypropylene plates against four different microorganisms: the Gram-positive bacterium K. rhizophila ATCC 9341, the Gram-negative bacterium E. coli ATCC 3988, and the yeasts C. albicans CCM 8215 and C. neoformans CCF 1081.
(§3) A working inoculum of each microorganism was prepared as follows: for E. coli and K. rhizophila, the inoculum was grown in LB medium (LB Broth, 25 g/L, incubated at 36 °C); for C. albicans and C. neoformans, YM6.3 medium (maltose extract 10 g, glucose 4 g, yeast extract 4 g per 1 L distilled water, incubated at 24 °C) with a cell concentration of approximately 5 × 10^5 cells/mL for all microorganisms was used.
(§4) Chloramphenicol served as a positive control for bacteria, while cycloheximide was used as a positive control for fungi. The gradient of the test substances was established by serial binary dilution across the wells. The MIC was determined by identifying the lowest concentration at which no live microorganisms were present. Cultivation was performed in the dark for 24 h.

Another test concerns K. rhizophila ATCC 9341. The test is described as above. The class given is cell-based. The note with it: Kocuria rhizophila, ATCC9341; 24 h in the dark; lowest concentration with no live microorganisms. The method, then: as §2, §3, §4
The subject of the next test is E. coli ATCC 3988. The test is described as above. The note with it: Escherichia coli, ATCC3988; 24 h in the dark; lowest concentration with no live microorganisms. The format is cell-based. The method, then:
as §2, §3, §4

For a further test, the system named is C. neoformans CCF 1081. Described as above. The class given is cell-based. The note with it: Cryptococcus neoformans, CCF1081; 24 h in the dark; n.d. = activity not detected; highest tested concentration 66.7 μM. The method, then: as §2, §3, §4
Another test relates to T. b. brucei 427. Nature of the test: Anti-trypanosomal activity, resazurin (AB assay), bloodstream form. The format is cell-based. The note with it: Trypanosoma brucei, 72 h, axenic, 48 h + 24 h resazurin. The method, then: (§5) The bloodstream forms of T. b. gambiense LiTat 1.3, T. b. brucei 427, and T. b. evansi AnTat 3/3 were grown in HMI-11 medium pH 7.3 supplemented with 36 mM sodium bicarbonate, 100 U/mL penicillin/streptomycin, and 10% fetal bovine serum at 37 °C and 5% CO2. The bloodstream form of Trypanosoma congolense IL3000 (generous gift from Liam Morrison) was cultured in TcBSF-1 medium pH 7.3 supplemented with 26 mM sodium bicarbonate, 25 mM HEPES, 5.5 mM glucose, 1 mM sodium pyruvate, 0.04 mM adenosine, 0.1 mM hypoxanthine, 0.02 mM thymidine, 0.02 mM bathocuproine, 2 mM L-glutamine, 0.2 mM 2-mercaptoethanol, 100 U/ml penicillin/streptomycin, and 20% goat serum New Zealand origin (Gibco) at 34 °C, 5% CO2. The assay for anti-trypanosomal activity was performed using the resazurin sodium salt dye (AB Assay) according to the published protocol in a 96-well plate format. Parasites at a number of 5 × 10^3 per well (T. b. brucei and T. b. gambiense) or 1 × 10^4 per well (T. b. evansi) were incubated with different drug concentrations (2-fold serial dilutions) in a volume of 200 μL of the medium. Medium with 1% DMSO (the highest concentration of the solvent used in the assay) was used to confirm no effect of the solvent on the cell growth. The plates were incubated for 48 h at the appropriate temperature. Then, 20 μL of resazurin sodium salt solution (0.125 mg/mL in 1× PBS, pH 7. 4) was added to each well, and the cells were incubated for another 24 h under the same conditions. The fluorescence signal was quantified using a Tecan Infinite M200 plate reader at excitation and emission wavelengths of 560 and 590 nm, respectively. The EC50 values were calculated using GraphPad Prism 9.5.1 by nonlinear regression with a variable slope. Each EC50 value is the mean ± standard error of the mean of three separate experiments performed in duplicate.

The test system of test [3] is Trypanosoma congolense IL3000. The test is described as above. The format is cell-based. The note with it: 72 h, axenic, 48 h + 24 h resazurin, read-out: EC50 T. congolense. The method, then:
as §5

Test [4] concerns T. b. gambiense LiTat 1.3. The description is as above. The class given is cell-based, T. brucei gambiense. To be noted: Trypanosoma brucei, 72 h, axenic, 48 h + 24 h resazurin. How it is done:
as §5

The subject of test [5] is L. mexicana (MNYC/BZ/1962/M379) amastigote. As to the kind of experiment: Anti-Leishmania activity, AB assay, axenic amastigotes. The class given is cell-based. The method, then:
(§6) Promastigote stages of L. mexicana (MNYC/BZ/1962/M379), a generous gift from Vyacheslav Yurchenko, were cultured in M199 medium pH 7.4 supplemented with 2 μg/mL biopterin, 2 μg/mL hemin, 25 mM HEPES, 100 U/mL penicillin/streptomycin, and 10% heat-inactivated FBS (BioSera) pH 7.4 at 25 °C. The amastigotes were differentiated in vitro from late log/stationary promastigote cultures and cultivated in Schneider’s Drosophila Medium (SIM) at pH 5.5, supplemented with 1.5 μg/mL hemin, 100 U/mL penicillin/streptomycin, and 20% heat-inactivated FBS (BioSera) at pH 5.5, at 32 °C, and 5% CO2. Following a three-day period, the promastigotes underwent a transformation into amastigotes, which were then maintained in SIM.
(§7) To estimate the EC50, the AB assay, as previously described, was employed. The results are expressed as EC50, representing the dose of the compound required to inhibit cellular growth by 50%. Each EC50 value is the mean ± the standard error of the mean derived from at least three separate experiments, each performed in duplicate.

For test [6], the system named is L. mexicana (MNYC/BZ/1962/M379) promastigote. Nature of the test: Anti-Leishmania activity, AB assay, axenic promastigotes. The class given is cell-based. The method, then: as §6, §7
The subject of a further test is T. b. evansi AnTat 3/3. As to the kind of experiment: Anti-trypanosomal activity, resazurin (AB assay), bloodstream form. The class given is cell-based, T. brucei evansi. To be noted: Trypanosoma brucei, 72 h, axenic, 48 h + 24 h resazurin. How it is done: as §5

Converted amounts (≈) assume the structure as drawn.

Turning to `COc1cc(O)c2c(c1)C(=O)C1=C(C2=O)[C@@H](O)[C@@H](O)[C@@H](C)O1` [Compound 4, (2R,3R,4R)-3,4,6-trihydroxy-8-methoxy-2-methyl-3,4-dihydro-2H-benzo[g]chromene-5,10-dione], the EC50 in [1] was found to be 6 ± 1 µM; in [2], 5.1 ± 0.1 µM.
Take `COc1cc(O)c2c(c1)C(=O)C1=C(C[C@@H](O)[C@@H](C)O1)C2=O` [Compound 6, (2R,3R)-3,6-dihydroxy-8-methoxy-2-methyl-3,4-dihydro-2H-benzo[g]chromene-5,10-dione]: the MIC against C. albicans CCM 8215 is 66.7 µM (≈ 19.4 µg/mL); in the test with K. rhizophila ATCC 9341 it was 8.3 µM (≈ 2.41 µg/mL); against E. coli ATCC 3988, 2.1 µM (≈ 0.61 µg/mL); against C. neoformans CCF 1081 it was 66.7 µM (≈ 19.4 µg/mL). Also, the EC50 is 7.2 ± 0.5 µM in [1]; 6.7 ± 0.8 µM in test [2]; 5.1 µM with T. b. brucei 427; 9.2 µM in test [3]; 8.6 µM in test [4]; 5.5 µM in test [5]. The figures for the concentration giving a half-maximal response (EC50) (in test [6]; in the test with T. b. evansi AnTat 3/3) were 25.2 µM and 2.4 µM, respectively.
Regarding `C[C@@H]1[C@H](O)[C@@H](C)/C=C/C=C/C=C/C=C/C=C/C=C/C=C/[C@H](O[C@@H]2O[C@H](C)[C@@H](O)[C@H](N)[C@@H]2O)C[C@@H]2O[C@](O)(C[C@@H](O)C[C@@H](O)[C@H](O)CC[C@@H](O)C[C@@H](O)CC(=O)O[C@H]1C)C[C@H](O)[C@H]2C(=O)O` [amphotericin B, reference compound], in [6], the EC50 worked out at 0.1 µM.
Regarding `O=C(N[C@H](CO)[C@H](O)c1ccc([N+](=O)[O-])cc1)C(Cl)Cl` [chloramphenicol, reference compound], the MIC against K. rhizophila ATCC 9341 and against E. coli ATCC 3988 was 10.3 µM (≈ 3.33 µg/mL) throughout.
